{"source": "patent US10682337B2", "about": "“Compositions and methods for treatment and prevention of pyrexia in horses” (Kindred Biosciences, Inc., priority 2015, dated 2020)", "format_in_all_cases": "in vivo", "key": {"[1]": {"test_system": "horses with naturally occurring respiratory infections", "assay": "pilot efficacy study of orally administered metamizole in horses with fever", "settings": "of 8 horses; oral gel 30 mg/kg; ≥2° F. decrease or ≤101.0° F. 6 hours following dose", "description": "Metamizole, as an active ingredient, was formulated into a simple gel for oral administration and dosed at 30 mg/kg body weight. Eight horses with naturally occurring respiratory infections were provided. The temperatures of the horses were monitored. […] Horses were treated up to three times with an oral formulation of metamizole sodium. Rectal temperature was monitored to determine response to treatment. […] Pyrexia returned at timepoints appropriate for the drug's plasma residence time."}, "[2]": {"assay": "oral bioavailability of metamizole in horses (plasma 4-MAA)", "settings": "four horses; 30 mg/kg; water slurry via nasogastric intubation vs IV Vetalgina; plasma 4-MAA up to 48 hours; FIG. 1", "description": "The commercially available Vetalgina product (Intervet) for IV administration (sodium salt) was administered in accordance with the manufacturer's instructions. Plasma was collected prior to administration and at specified intervals for up to 48 hours. Horses underwent a washout period, and then were administered the active ingredient (metamizole sodium monohydrate) in a water slurry to the horses' stomach via nasogastric intubation. Plasma was collected again prior to […] administration and at specified intervals for up to 48 hours. Horses were treated with matched doses on a milligram per kilogram basis for both test articles. Plasma was assayed for the primary metabolite of metamizole sodium, 4-methylaminoantipyrine (4-MAA)."}, "[3]": {"test_system": "horses with clinical signs of infectious disease", "assay": "two-phase efficacy study of oral metamizole in mature horses", "description": "A two-phase study to determine the efficacy of oral metamizole in mature horses was conducted as follows. In the first phase, 9 horses with clinical signs of infectious disease were enrolled.\nIn the second phase, 8 horses with clinical signs of infectious disease were enrolled.\nThe oral formulation of metamizole used for both phases was an aqueous formulation comprising 500 mg/ml metamizole sodium monohydrate, 10 mg/ml xanthan gum, and 100 mg/ml propylene glycol, and 15 mg/ml benzyl alcohol. The formulation was adjusted to pH 7.8 using sodium hydroxide.\nFor both phases, rectal temperature was monitored at pre-determined intervals. Horses were redosed based on rectal temperature and minimum dosing intervals up to five additional times, for a total of six doses. Fever was required for redose with metamizole."}}, "data": [{"smiles": "Cc1c(N(C)CS(=O)(=O)O)c(=O)n(-c2ccccc2)n1C", "note": "[metamizole sodium]", "values": [{"measurement": "horses with clinically significant improvement in rectal temperature", "setting": "[1]", "result": 8}]}, {"smiles": "Cc1c(N(C)CS(=O)(=O)O)c(=O)n(-c2ccccc2)n1C", "note": "[metamizole, [(2,3-dihydro-1,5-dimethyl-3-oxo-2-phenyl-1H-pyrazol-4-yl)methylamino] methanesulfonic acid]", "values": [{"measurement": "bioavailability, orally vs parenterally administered metamizole", "setting": "[2]", "result": "comparable bioavailability"}]}, {"smiles": "Cc1c(N(C)CS(=O)(=O)O)c(=O)n(-c2ccccc2)n1C", "note": "[metamizole sodium monohydrate]", "values": [{"measurement": "Adverse events", "setting": "[3]; 30 and 40 mg/kg oral, up to six doses", "result": "consistent with the underlying infections required for enrollment"}, {"measurement": "horses defined as primary responders after Dose 1", "setting": "[3]; Phase 2, 40 mg/kg oral", "result": "7/8"}, {"measurement": "horses defined as primary responders after Dose 1", "setting": "[3]; phase 1, 30 mg/kg oral", "result": "7/9"}]}]}
